Tested on: stomata (guard cells)
Assay: Measurement of the stomatal aperture in isolated epidermal tissue
Format: cell-based, Arabidopsis thaliana
Details: 20 μM ABA, 2.5 hours under illumination; AHA2-transgenic and wild-type plants
Description: The stomatal aperture was measured according to a conventional method (27) with slight modifications. Epidermal tissue isolated from plants 3 to 4 weeks after planting overnight dark-adapted plants was incubated in basal buffer (5 mM MES-BTP, pH 6.5, 50 mM KCl, and 0.1 mM CaCl2). To inhibit light-induced stomatal opening using ABA, the epidermal tissue was incubated under blue light/red light (10 μmol m^−2s^−1 blue light (Stick-B-32; EYELA, Tokyo, Japan) superimposed on 50 μmol ^m−2s^−1 background red light (LED-R; EYELA)) for 2.5 hours at 24° C. in the presence or absence or 20 μM ABA. The stomatal aperture in the abaxial epidermis was measured using a microscope. Stomatal aperture was represented as the average and standard error (SEM) for 25 stomata. Results were confirmed by blind reassessment by another researcher.

CC1=CC(=O)CC(C)(C)[C@@]1(O)/C=C/C(C)=C\C(=O)O [ABA, abscisic acid]
effect of ABA on light-induced stomatal opening: inhibited

Source: patent US10227606B2, “Method of increasing photosynthesis and yield of plants” (NATIONAL UNIVERSITY CORPORATION NAGOYA UNIVERSITY, priority 2013, dated 2019)
